Data as given in patent publication US9241951B2, “Of gastrointestinal health, immunity and performance by dietary intervention” (BIOATLANTIS LTD, priority 2009, dated 2016).

What was measured:
[1] = VFA analysis and digesta pH in ileum, caecum and colon, Example 5; format: in vivo, pig; conditions: for total VFAs: increasing LAM
Source text: 21 pigs with an initial weight of 17.9±2.2 Kg were assigned to one of the 3 dietary treatments: (T1) control; (T2) basal diet+300 ppm LAM; (T3) basal diet+600 ppm LAM. Experimental feeding continued for 21 days ad libitum. Diets were formulated to have similar digestible energy (DE) (14.4 MJ/Kg) and ileal digestible lysine (12.5 g/Kg). Post-slaughter, digestive tract was removed by dissection and digesta was removed from the ileum. Each digesta sample was serially diluted in maximum recovery diluent (MRD, Oxoid, Basingstoke, UK), and spread plated onto selective agars. Bifidobacteria, Lactobacilli and Enterobacteria species were isolated according to the methods described by Pierce et al. (2005). Digesta samples used to measure VFA concentration were collected from the caecum and the same location in the ileum and colon. VFA analysis was performed using gas liquid chromatography (GLC) according to the method described by Pierce et al., (2005).

[2] = Faecal pH, dry matter and faeces (diarrhoea) scoring, Example 4; format: in vivo, pig
Source text: (§1) One hundred and ninety two piglets were weaned at twenty four days of age, with an initial live weight of 6.4±0.785 Kg and assigned to one of four dietary treatments or 21 days post weaning. The dietary treatments consisted of (T1) basal diet, (T2) basal diet with 300 ppm LAM, (T3) basal diet with 236 ppm FUC, (T4) Basal diet with 300 ppm LAM and 236 ppm FUC. Diets were formulated to have identical concentrations of digestible energy (DE) (16 MJ/Kg) and ileal digestible lysine (14 g/Kg). All amino acid requirements were met relative to lysine (Close, 1994). Chromium III oxide was added to the diets for determination of nutrient digestibility. The LAM and FUC were derived from Laminaria hyperborea.
(§2) Piglets were housed in groups of 4 and offered feed twice daily. Water was supplied ad-libitum. Any pig displaying symptoms of illness was treated appropriately and recorded. Pigs were weighed on day 0 (day of weaning), 7, 14 and 21. Feed intake was monitored weekly. Fresh faecal samples were taken on day 10 and were analysed for E. coli and Lactobacilli concentrations. Faeces samples were collected from each pen on day 12-17 and were retained for chemical analysis. Fresh faecal samples were removed on day 14 and were frozen and retained for volatile fatty acid analysis. Fresh faecal samples were taken on day 17 for pH determination.
A scoring system was applied to indicate its presence and severity. The following scoring system was used: 1=hard, 2=slightly soft, 3=soft, partially formed, 4=loose, semi-liquid and 5=watery, mucous-like.

Escherichia coli = test: Faecal microbiology, Example 4; format: in vivo, pig; conditions: LAM diets (300 ppm) v no LAM supplementation (7.84)
Source text: as §1, §2
A sample was serially diluted (1:10) in 9.0 ml aliquots of maximum recovery diluent (MRD, Oxoid, Basingstoke, UK), and spread plated (0.1 ml aliquots) onto selective agars. Lactobacillus spp. were isolated on de Man, Rogosa, Sharp agar (MRS, Oxoid) with overnight incubation at 37° C. in 5% CO2. The API 50 CHL (BioMerieux, France) kit was used to confirm suspect Lactobacilli spp. E. coli species were isolated on MacConkey agar (Oxoid), following aerobic incubation at 37° C. for 18-24 hours. Suspect colonies were confirmed with API 20E (BioMerieux, France).

[3] = Pig performance post weaning with LAM and FUC, Example 4; format: in vivo
Source text: as §1, §2

laminarin
digesta pH ([1]; any intestinal region): no significant alteration | total VFAs ([1]; caecum): significant increase | total VFAs ([1]; ileum or colon): no significant effects | faecal DM content ([2]; LAM supplemented diets (300 ppm) v unsupplemented (26.24), in % (unit assumed)): 28.64 | faecal score ([2]; days 0-21, compared to the basal diet): no effect | faecal score ([2]; days 7-14, scale 1 (hard) to 5 (watery), LAM supplemented diets v 2.57): 2.05 | faecal E. coli population (Escherichia coli): 7.22 | Gain: Feed ratio ([3]; days 7-14, LAM supplemented diets (300 ppm) v unsupplemented (0.569)): 0.763 | ADG ([3]; days 7-14 post weaning, LAM supplemented diets (300 ppm) v diets with no LAM (0.266)): 0.344 | ADG ([3]; entire experimental period, LAM supplemented diets (300 ppm) v no LAM (0.232)): 0.324 | Gain: Feed ratio ([3]; entire experimental period, LAM supplemented diets (300 ppm) v unsupplemented (0.646)): 0.703 | average daily feed intake ([3]; weaned pigs, 21 days, LAM 300 ppm, FUC 236 ppm): no effect
